Data: patent US9770537B2, “Solvent methods for preparing crystalline macrolide particulates, compositions, and articles containing particulates” (SurModics, Inc., priority 2013, dated 2017)
Values after ≈ are worked out from the molar mass of the structure shown.

How the values were obtained:
[1] = cited from earlier work
[2] = Solubility / saturation point of rapamycin in solvents; format: physicochemical; conditions: xylene at 20° C.
Method: Rapamycin has a molecular weight of 914.17 g/mol and molecular formula: C51H79NO13 (see also FIG. 1). It is insoluble in water, but soluble in ethanol (2 mM), methanol (25 mg/mL), DMSO (25 mg/mL), chloroform, (5 mg/mL), ether, acetone and N,N-dimethylformamide. As commercially supplied, rapamycin exists as one isomer (structurally homogeneous) in the solid form as indicated by X-rays whereas in solution there are two conformational isomers (approx. 4:1) which exist in equilibrium.
As a general matter, the macrolide therapeutic can be dissolved and/or dispersed in a desired amount in a solvent, or mixture of solvents, for forming the macrolide particulates. As a general matter, dependent on the solvent or solvent combination, as well as the macrolide being dissolved, it is understood in the composition that the macrolide can display a maximum solubility at a predetermined temperature, such as about 20° C. At the maximum solubility a solution can be referred to as “saturated.” The amount of macrolide dissolved can be described in conventional terms such as mg/mL, % (wt/vol), or molar. For example, the saturation point of rapamycin in many solvents is in the range of 15 mg/mL to 150 mg/mL. […]

- saturated solution concentration in xylene [2]: about 75 mg/mL
SMILES: CO[C@H]1C[C@@H]2CC[C@@H](C)[C@@](O)(O2)C(=O)C(=O)N2CCCC[C@H]2C(=O)O[C@H]([C@H](C)C[C@@H]2CC[C@@H](O)[C@H](OC)C2)CC(=O)[C@H](C)/C=C(\C)[C@@H](O)[C@@H](OC)C(=O)[C@H](C)C[C@H](C)/C=C/C=C/C=C/1C [Rapamycin, rapamycin]
- solubility in chloroform ([1]; chloroform): 5000 µg/mL (≈ 5.47 mM)
- solubility in ethanol ([1]; ethanol): 2000 µM (≈ 1830 µg/mL)
- solubility in ether, acetone and N,N-dimethylformamide ([1]; ether, acetone, N,N-dimethylformamide): soluble
- solubility in water ([1]; water): insoluble
